Measured values: patent US20130344008A1, “NONCARIOUS MATERIAL AND ANTICARIOUS AGENT CONTAINING RARE SUGAR” (priority 2006, published 2013)

Experiments:
Assay type in all cases: cell-based, Streptococcus mutans
[1] = test system: S. mutans strain (JCM5075); assay: Example 3: pH of S. mutans culture in BHI broth with test substance after 48-hour culturing; conditions: 10% test substance; for pH: BHI broth, after 48-hour culturing
Procedure: Allitol and D-sorbose were used to assay the actions thereof against S. mutans. Allitol and D-sorbose were supplied from the Rare Sugar Research Center, the National University Corporation Kagawa University. The S. mutans strain (JCM5075) was plated in a Brain Heart Infusion broth containing a 10% test substance, to measure the pH of the liquid culture after 48-hour culturing. As a control, 1% sucrose and 10% Xylitol were used.

[2] = test system: S. mutans strain MT 8148 (JCM5175); assay: Example 2: bacterial growth (OD 660 nm) and pH of S. mutans culture in phenol red broth with 1% test substance; conditions: PRB broth, 37° C., 48 hours later; for OD: bacterial growth, absorbance at 660 nm
Procedure: D-Psicose and L-psicose were used to assay the actions thereof against S. mutans. D-Psicose and L-psicose were supplied from the Rare Sugar Research Center, the National University Corporation Kagawa University. The S. mutans strain MT 8148 (JCM5175) was plated in a Brain Heart Infusion broth supplemented with agar for culturing at 37° C. for 48 hours. The liquid culture was inoculated in a fresh Brain Heart Infusion broth, for culturing at 37° C. for 24 hours. The liquid culture was inoculated in a phenol red broth (PRB broth) containing a test substance at 1%, for culturing at 37° C.; the bacterial growth (absorbance at 660 nm: OD) and the pH were assayed 48 hours later. Asa control, glucose, fructose, sucrose and Xylitol were used. After culturing for a given period of time, additionally, the optical density of apart of the liquid culture was measured with an absorptiometer (OD 660 nm).

[3] = test system: S. mutans strain JCM5075; assay: Example 1: optical density and pH of S. mutans JCM5075 cultures in BHI broth with rare sugars, with or without sucrose; conditions: for pH 0 hour later / pH 6 hours later / pH 8 hours later / pH 12 hours later / pH 24 hours later / Optical density (OD) 12 hours later / suppression of OD increase compared with no addition: BHI broth; for Optical density (OD) 12 hours later: OD600; for suppression of the pH reduction: also with 1% sucrose addition; for suppression of OD increase compared with no addition: FIG. 2 / Table 1
From the text: S. mutans strains characteristically form insoluble glucan on addition of sucrose, to generate acids and reduce the pH of the culture medium, which is considered to cause decalcification of teeth on dental surface to form decayed teeth (the reason why the strains are designated bacteria causing decayed teeth). JCM 5075 of S. mutans strains and the Brain Heart Infusion (BHI) broth were used to assay the optical density (the increase of the number of the bacterial cells) and the pH change in individual rare sugar solutions with or without sucrose added. As the rare sugars, there were used D-fructose, L-fructose, D-sorbose, L-sorbose, D-psicose, L-psicose, D-tagatose and L-tagatose. The rare sugars used were supplied from the Rare Sugar Research Center, the National University Corporation Kagawa University.
The strain JCM5075 thawed from −80° C. stock was cultured for 48 hours, and was adjusted to OD 0.3. 100 μl of the resulting culture was added to each 2-ml portion of the BHI broths under individual conditions, to assay the optical density and the pH 24 hours later (observation with naked eyes and absorbance: OD600).
After collecting a part of the liquid culture and centrifuging the culture, the pH of the resulting supernatant was measured with a pH meter. The results are shown in Table 2 (0, 6, 8, 12 and 24 hours after the addition of the bacteria to the BHI broth) and FIG. 3.

[4] = 10% test substance + 1% sucrose

SMILES	pH 0 hour later ([3]; 5% test substance + 1% sucrose)	pH 6 hours later ([3]; 5% test substance + 1% sucrose)	pH 8 hours later ([3]; 5% test substance + 1% sucrose)	pH 12 hours later ([3]; 5% test substance + 1% sucrose)	pH 24 hours later ([3]; 5% test substance + 1% sucrose)	pH 0 hour later ([3]; 5% test substance, no sucrose)	pH 6 hours later ([3]; 5% test substance, no sucrose)	pH 8 hours later ([3]; 5% test substance, no sucrose)	pH 12 hours later ([3]; 5% test substance, no sucrose)	pH 24 hours later ([3]; 5% test substance, no sucrose)	pH 0 hour later [3, 4]	pH 6 hours later [3, 4]	pH 8 hours later [3, 4]	pH 12 hours later [3, 4]	pH 24 hours later [3, 4]	Optical density (OD) 12 hours later ([3]; 10% test substance)	pH 0 hour later ([3]; 10% test substance, no sucrose)	pH 6 hours later ([3]; 10% test substance, no sucrose)	pH 8 hours later ([3]; 10% test substance, no sucrose)	pH 12 hours later ([3]; 10% test substance, no sucrose)	also measured
OC[C@@H](O)[C@@H](O)[C@@H](O)[C@@H](O)CO [Allitol]																					pH [1]: 5.6; pH ([1]; listed as allitol): ≥ 5.5
O=C[C@H](O)[C@@H](O)[C@H](O)[C@H](O)CO [D-Glucose, reference compound]																					pH [2]: 3.9; OD [2]: 0.26
O=C(CO)[C@@H](O)[C@H](O)[C@H](O)CO [D-fructose, reference compound]	7.4	7.2	7.2	7.2	5.0	7.4	7.2	7.2	7.2	4.7	7.3	7.2	7.2	7.2	5.1	0.114	7.3	7.2	7.2	7.2	pH change 24 hours later (in words) ([3]; 1% sucrose, or 10% Xylitol+1% sucrose, or 10% fructose+1% sucrose, FIG. 3): highly inclined to acidity; pH 24 hours later ([3]; 10% test substance, no sucrose): 6.5; precipitation of bacterial masses (insoluble glucan) under observation with naked eyes ([3]; addition of 1% sucrose, addition of 10% D-fructose, 24 hours later): caused the precipitation of bacterial masses (insoluble glucan)
O=C(CO)[C@H](O)[C@@H](O)[C@H](O)CO [D-sorbose]	7.3	7.2	7.2	7.2	5.0	7.4	7.2	7.2	7.2	5.5	7.3	7.2	7.2	7.2	6.9	0.102	7.3	7.2	7.2	7.2	pH 24 hours later ([3]; 10% test substance, no sucrose): 6.9; suppression of the pH reduction ([3]; 24 hours later, FIG. 3): pH reduction was suppressed; suppression of OD increase compared with no addition [3]: suppression of OD increase was observed; assimilability with the S. mutans strain ([1]; 48-hour culturing): low assimilability; pH [1]: 5.0
O=C(CO)[C@@H](O)[C@@H](O)[C@H](O)CO [D-tagatose]	7.3	7.2	7.2	7.2	6.9	7.3	7.2	7.2	7.2	7.0	7.1	7.0	7.0	7.0	6.9	0.132	7.1	7.0	7.0	7.0	pH 24 hours later ([3]; 10% test substance, no sucrose): 6.9; suppression of the pH reduction ([3]; 24 hours later, FIG. 3): pH reduction was suppressed; suppression of OD increase compared with no addition [3]: suppression of OD increase was observed
O=C(CO)[C@H](O)[C@@H](O)[C@@H](O)CO [L-fructose]	7.3	7.2	7.2	7.2	5.0	7.4	7.2	7.2	7.2	4.7	7.3	7.2	7.2	7.2	6.7	0.037	7.3	7.2	7.2	7.2	pH 24 hours later ([3]; 10% test substance, no sucrose): 6.5; suppression of the pH reduction ([3]; 24 hours later, FIG. 3): pH reduction was suppressed; suppression of OD increase compared with no addition [3]: suppression of OD increase was observed; pH [2]: 4.0; OD [2]: 0.20
O=C(CO)[C@@H](O)[C@@H](O)[C@@H](O)CO [L-psicose]	7.3	7.2	7.2	7.2	6.2	7.3	7.2	7.2	7.2	6.8	7.2	7.1	7.0	7.0	6.9	0.067	7.2	7.1	7.0	7.0	pH 24 hours later ([3]; 10% test substance, no sucrose): 6.9; suppression of the pH reduction ([3]; 24 hours later, FIG. 3): pH reduction was suppressed; suppression of OD increase compared with no addition [3]: suppression of OD increase was observed; pH [2]: 5.9; OD [2]: 0.02
O=C(CO)[C@@H](O)[C@H](O)[C@@H](O)CO [L-sorbose]	7.4	7.2	7.2	7.2	5.3	7.4	7.2	7.2	7.2	5.9	7.3	7.2	7.2	7.2	6.4	0.463	7.3	7.2	7.2	7.2	pH 24 hours later ([3]; 10% test substance, no sucrose): 7.1
O=C(CO)[C@H](O)[C@H](O)[C@@H](O)CO [L-tagatose]	7.3	7.2	7.2	7.2	6.0	7.3	7.2	7.2	7.2	6.6	7.1	7.0	6.9	6.9	6.8	0.026	7.1	7.0	6.9	6.9	pH 24 hours later ([3]; 10% test substance, no sucrose): 6.8; suppression of the pH reduction ([3]; 24 hours later, FIG. 3): pH reduction was suppressed; suppression of OD increase compared with no addition [3]: suppression of OD increase was observed
